From ChEMBL document CHEMBL3227988, “Synthesis and antiviral activities of arabinofuranosyl-5-ethylpyrimidine nucleosides. Selective antiherpes activity of 1-(beta-D-arabinofuranosyl)-5-ethyluracil” (J Med Chem, 1979)
Values after ≈ are worked out from the molar mass of the structure shown. Active and inactive are the calls of the source. The calls are words filed in the database; no cut-off is given here.

system: Vaccinia virus; assay: Antiviral activity against Vaccinia virus infected in primary rabbit kidney cells assessed as inhibition of virus-induced cytopathogenicity treated immediately after virus adsorption measured 2 to 3 days after virus infection; type: functional; settings: Orthopoxvirus vaccinia

Going from `O=c1ccn([C@@H]2O[C@H](CO)[C@@H](O)[C@@H]2O)c(=O)[nH]1` [ARAURIDINE] to `Cc1cn([C@@H]2O[C@H](CO)[C@@H](O)[C@@H]2O)c(=O)[nH]c1=O`, the MIC falls from > 200 µg/mL to 4 µg/mL (≈ 15.5 µM).

`CCc1cn([C@@H]2O[C@H](CO)[C@@H](O)[C@@H]2O)c(=O)nc1N` and `CCc1cn([C@@H]2O[C@H](CO)[C@@H](O)[C@@H]2O)c(=O)[nH]c1=O` cannot be ordered by MIC: > 200 µg/mL for the first, > 200 µg/mL for the second.

`Nc1ccn([C@@H]2O[C@H](CO)[C@@H](O)[C@@H]2O)c(=O)n1` [CYTARABINE] showed an MIC of 0.02 µg/mL (≈ 0.0822 µM).

system: Vaccinia virus; assay: Antiviral activity against Vaccinia virus infected in primary rabbit kidney cells assessed as inhibition of virus-induced cytopathogenicity at 200 ug/ml treated immediately after virus adsorption measured 2 to 3 days after virus infection; type: functional, organism-based; settings: Orthopoxvirus vaccinia

For `CCc1cn([C@H]2O[C@H](CO)[C@@H](O)[C@@H]2O)c(=O)nc1N`, the inhibition was “inactive”.
For `CCc1cn([C@H]2O[C@H](CO)[C@@H](O)[C@@H]2O)c(=O)[nH]c1=O`, the inhibition was “inactive”.
